Experimental data as given in PMC9412534, “Diindolylmethane Derivatives: New Selective Blockers for T-Type Calcium Channels” (Membranes, 2022).
Entries after “also recorded” stand apart in the source; their conditions may differ.

Tests used:
[1] = molecular target: T1, recombinant hCaV3.1 channels (Homo sapiens, UniProt O43497); assay: Whole-cell patch-clamp (QPatch), CaV3.1; format: cell-based; conditions: for IC50: whole-cell current, holding potential −90 mV, n = 3–5
T1 construct: host or cells: probably the CHO cell line expressing CaV3.1 (inferred: transient HEK293T cells are assigned to FLIPR only)
Description: (§1) The human embryonic kidney 293 (HEK 293) cell lines (from Emmanuel Bourinet, Montpellier, France) stably expressing CaV3.2 or CaV3.3 were cultured under 5% carbon dioxide at 37 °C in Dulbecco’s Modified Eagle Medium (DMEM) Glutamax (Gibco, Life Technologies, Carlsbad, CA, USA) supplemented with 10% (v/v) fetal bovine serum (FBS), 100 U/mL penicillin, 100 μg/mL streptomycin (Gibco, Life Technologies, Carlsbad, CA, USA), and 750 μg/mL geneticin (G418) (Gibco, Life Technologies). The Chinese Hamster Ovary (CHO) cell lines (Emmanuel Bourinet, Montpellier, France) expressing CaV3.1 were cultured under 5% carbon dioxide at 37 °C in Alpha Minimum Essential Media (MEM) Glutamax (Gibco, Life Technologies), supplemented with 10% (v/v) fetal bovine serum (FBS) and 300 μg/mL geneticin (G418) (Gibco, Life Technologies). The human neuroblastoma SH-SY5Y cells (Victor Diaz, Goettingen, Germany) were cultured under 5% carbon dioxide at 37 °C in RPMI 1640 antibiotic-free medium (Invitrogen, Carlsbad, CA, USA), supplemented with 15% FBS and 2 mM GlutaMAX™ (Invitrogen). D-PBS (Gibco, Life Technologies) was used to wash the cells, and 0.25% Trypsin-EDTA (Gibco, Life Technologies) was used to detach cells from the flask surface. They were split in a ratio of 1:5 (ideally 1000 cells/cm^2) when they reached 70–80% confluence (every 2–3 days). Transiently transfected CaV3.1 HEK293 T cells were used in FLIPR Assays. HEK 293 T cells were cultured under 5% carbon dioxide at 37 °C in DMEM supplemented with 10% (v/v) FBS. D-PBS was used to wash the cells, and 0.25% Trypsin-EDTA was used to detach cells from the flask surface. The cells were split and seeded at 6 million cells per T175 flask, to reach 70–80% confluence after 24 h. The next day, 12 μg DNA of human CaV3.1 was incubated in 900 μL serum-free DMEM with 36 μL FuGENE HD transfection reagent (Promega Corporation, Madison, WI, USA) (1:3 DNA/Fugene ratio) for 20 min, and then the mixture was added into the cell flask slowly, drop by drop. After the transfection, the cells were cultured under 5% carbon dioxide at 37 °C for 24 h and then moved to a 28 °C incubator.
(§2) Whole-cell patch-clamp experiments were performed on an automated electrophysiology platform QPatch 16 X (Sophion Bioscience A/S, Ballerup, Denmark) in single-hole configuration using 16-channel planar patch chip QPlates (Sophion Bioscience A/S). The extracellular recording solution contained, in mM: TEACl 157, MgCl2 0.5, CaCl2 5, and HEPES 10; pH 7.4 adjusted with TEAOH; and osmolarity 320 mOsm. The intracellular pipette solution contained, in mM: CsF 140, EGTA 1, HEPES 10, and NaCl 10; pH 7.2 adjusted with CsOH; and osmolarity 325 mOsm. Compounds were diluted in extracellular recording solution with 0.1% BSA at the concentrations stated (DMSO ≤ 0.1%), and the effects of compounds were compared to the control (extracellular solution with 0.1% BSA) parameters within the same cell. Compounds’ incubation time varied from two (for the highest concentration) to five (for the lowest concentration) minutes by applying the voltage protocol 10–30 times at 10 s intervals to ensure steady-state inhibition was achieved. The effects of compounds were obtained using 200 ms voltage steps to peak potential from a holding potential of −90 mV. Current–voltage (I–V) relationships were obtained by holding the cells at a potential of −100 mV before applying 50 ms pulses to potentials from −75 to +50 mV every 5 s in 5 mV increments. […]

T-47D cells = assay: Cell viability MTT assay, T-47D; format: cell-based, human; conditions: for viability at 50 µM: n = 4; for IC50: n = 3
Description: Human breast cancer cell line MCF-7 and T-47D, lung cancer cell line A549, and colon cancer cell line HT-29 were cultured under 5% carbon dioxide at 37 °C in DMEM Glutamax (Gibco, Life Technologies) supplemented with 10% (v/v) FBS. They were split in a ratio of 1:3–1:6 (ideally 2–4 × 10,000 cells/cm^2) when they reached 70–80% confluence using 0.25% Trypsin-EDTA. For cell viability MTT assay, cells were seeded into 96-well clear bottom culture plates (Corning, Lowell, MA, USA) at a density of 5 × 10^3 cells/well and settled at 37 °C for 24 h.
Seeded cells were treated with various concentrations of compounds for desired time period (24, 48 and 72 h). After the treatments, the media were removed from each well, and replaced with 25 μL of serum-free media and 25 μL of MTT Reagent (cat. no., ab211091; Abcam, Cambridge, MA, USA). The plate was then incubated at 37 °C for 3 h, and 75 μL of MTT Solvent (cat. no., ab211091; Abcam) was added into each well after incubation. The absorbance was evaluated at 590 nm. Cell-wells treated with 0.1% DMSO were used as positive control and no cell-wells were used as background control.

[2] = molecular target: T2, recombinant hCaV3.2 channels (Homo sapiens, UniProt O95180); assay: Whole-cell patch-clamp (QPatch), CaV3.2; format: cell-based; conditions: for IC50: whole-cell current, holding potential −90 mV, n = 3–5; for extent of block of CaV3.2 whole-cell inward Ca2+ current: QPatch
T2 construct: the only CaV3.2-expressing cells described
Description: as §1, §2

[3] = Homo sapiens, T47D, 72 h treatment
[4] = Homo sapiens, T47D, 72 h, 72 h treatment

T2 sequence (O95180 whole entry): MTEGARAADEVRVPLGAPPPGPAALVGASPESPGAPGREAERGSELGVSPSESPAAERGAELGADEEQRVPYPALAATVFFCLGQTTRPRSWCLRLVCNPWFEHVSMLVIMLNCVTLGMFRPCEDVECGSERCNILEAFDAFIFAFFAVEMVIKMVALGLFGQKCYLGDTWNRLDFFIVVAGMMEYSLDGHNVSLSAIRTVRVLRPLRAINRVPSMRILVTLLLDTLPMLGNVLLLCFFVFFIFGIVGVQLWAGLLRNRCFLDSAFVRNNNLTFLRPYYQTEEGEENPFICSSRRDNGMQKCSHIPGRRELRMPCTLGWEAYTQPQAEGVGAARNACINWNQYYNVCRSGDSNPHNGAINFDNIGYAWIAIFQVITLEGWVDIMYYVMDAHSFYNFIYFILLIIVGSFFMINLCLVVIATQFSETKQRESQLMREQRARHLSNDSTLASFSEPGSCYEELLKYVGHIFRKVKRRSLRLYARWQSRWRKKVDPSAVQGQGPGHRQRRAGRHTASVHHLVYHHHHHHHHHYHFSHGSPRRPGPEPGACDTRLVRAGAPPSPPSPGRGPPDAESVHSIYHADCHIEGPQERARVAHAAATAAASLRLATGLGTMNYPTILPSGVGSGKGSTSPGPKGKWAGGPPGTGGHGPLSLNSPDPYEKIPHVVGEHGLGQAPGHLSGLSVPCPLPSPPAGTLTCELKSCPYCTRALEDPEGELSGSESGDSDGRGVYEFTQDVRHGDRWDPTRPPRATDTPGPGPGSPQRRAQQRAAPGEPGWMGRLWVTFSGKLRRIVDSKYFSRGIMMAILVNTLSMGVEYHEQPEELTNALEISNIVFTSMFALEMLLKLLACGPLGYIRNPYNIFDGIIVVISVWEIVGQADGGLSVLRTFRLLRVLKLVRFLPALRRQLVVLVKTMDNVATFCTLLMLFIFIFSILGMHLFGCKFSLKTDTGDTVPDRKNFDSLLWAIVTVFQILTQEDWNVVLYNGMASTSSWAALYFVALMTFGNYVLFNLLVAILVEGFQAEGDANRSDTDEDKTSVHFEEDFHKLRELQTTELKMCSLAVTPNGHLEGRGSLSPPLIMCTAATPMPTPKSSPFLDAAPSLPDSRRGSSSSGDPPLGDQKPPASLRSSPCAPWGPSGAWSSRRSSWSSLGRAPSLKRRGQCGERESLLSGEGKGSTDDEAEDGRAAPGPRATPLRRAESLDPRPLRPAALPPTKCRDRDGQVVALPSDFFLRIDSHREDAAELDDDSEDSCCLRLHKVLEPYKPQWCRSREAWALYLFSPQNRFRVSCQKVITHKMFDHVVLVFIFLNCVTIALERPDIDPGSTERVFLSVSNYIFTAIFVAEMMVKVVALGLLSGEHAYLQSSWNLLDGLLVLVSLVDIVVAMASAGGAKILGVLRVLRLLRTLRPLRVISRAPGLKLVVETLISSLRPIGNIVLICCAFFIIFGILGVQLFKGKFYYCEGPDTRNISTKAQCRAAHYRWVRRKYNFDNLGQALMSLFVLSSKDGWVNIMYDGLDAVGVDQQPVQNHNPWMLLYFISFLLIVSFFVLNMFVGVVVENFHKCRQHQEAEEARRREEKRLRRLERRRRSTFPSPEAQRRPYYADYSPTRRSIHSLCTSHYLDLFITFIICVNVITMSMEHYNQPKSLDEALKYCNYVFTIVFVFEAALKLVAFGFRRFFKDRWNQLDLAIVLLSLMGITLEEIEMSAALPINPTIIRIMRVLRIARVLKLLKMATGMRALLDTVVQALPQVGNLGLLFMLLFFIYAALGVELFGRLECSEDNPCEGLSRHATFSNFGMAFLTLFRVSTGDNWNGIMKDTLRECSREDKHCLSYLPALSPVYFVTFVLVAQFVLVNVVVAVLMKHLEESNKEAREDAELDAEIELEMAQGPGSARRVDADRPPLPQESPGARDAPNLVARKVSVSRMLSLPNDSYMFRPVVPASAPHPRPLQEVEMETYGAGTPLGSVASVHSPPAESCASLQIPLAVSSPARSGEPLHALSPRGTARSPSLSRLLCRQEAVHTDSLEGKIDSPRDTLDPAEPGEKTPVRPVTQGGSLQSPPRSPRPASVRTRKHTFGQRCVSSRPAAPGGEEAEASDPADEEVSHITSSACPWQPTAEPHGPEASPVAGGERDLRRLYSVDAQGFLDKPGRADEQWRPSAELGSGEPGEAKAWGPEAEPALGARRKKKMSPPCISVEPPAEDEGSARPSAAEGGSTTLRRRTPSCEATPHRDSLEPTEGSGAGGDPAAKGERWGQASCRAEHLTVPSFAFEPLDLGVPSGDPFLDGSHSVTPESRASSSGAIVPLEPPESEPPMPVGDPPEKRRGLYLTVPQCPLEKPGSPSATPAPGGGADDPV
T1 sequence (O43497 whole entry): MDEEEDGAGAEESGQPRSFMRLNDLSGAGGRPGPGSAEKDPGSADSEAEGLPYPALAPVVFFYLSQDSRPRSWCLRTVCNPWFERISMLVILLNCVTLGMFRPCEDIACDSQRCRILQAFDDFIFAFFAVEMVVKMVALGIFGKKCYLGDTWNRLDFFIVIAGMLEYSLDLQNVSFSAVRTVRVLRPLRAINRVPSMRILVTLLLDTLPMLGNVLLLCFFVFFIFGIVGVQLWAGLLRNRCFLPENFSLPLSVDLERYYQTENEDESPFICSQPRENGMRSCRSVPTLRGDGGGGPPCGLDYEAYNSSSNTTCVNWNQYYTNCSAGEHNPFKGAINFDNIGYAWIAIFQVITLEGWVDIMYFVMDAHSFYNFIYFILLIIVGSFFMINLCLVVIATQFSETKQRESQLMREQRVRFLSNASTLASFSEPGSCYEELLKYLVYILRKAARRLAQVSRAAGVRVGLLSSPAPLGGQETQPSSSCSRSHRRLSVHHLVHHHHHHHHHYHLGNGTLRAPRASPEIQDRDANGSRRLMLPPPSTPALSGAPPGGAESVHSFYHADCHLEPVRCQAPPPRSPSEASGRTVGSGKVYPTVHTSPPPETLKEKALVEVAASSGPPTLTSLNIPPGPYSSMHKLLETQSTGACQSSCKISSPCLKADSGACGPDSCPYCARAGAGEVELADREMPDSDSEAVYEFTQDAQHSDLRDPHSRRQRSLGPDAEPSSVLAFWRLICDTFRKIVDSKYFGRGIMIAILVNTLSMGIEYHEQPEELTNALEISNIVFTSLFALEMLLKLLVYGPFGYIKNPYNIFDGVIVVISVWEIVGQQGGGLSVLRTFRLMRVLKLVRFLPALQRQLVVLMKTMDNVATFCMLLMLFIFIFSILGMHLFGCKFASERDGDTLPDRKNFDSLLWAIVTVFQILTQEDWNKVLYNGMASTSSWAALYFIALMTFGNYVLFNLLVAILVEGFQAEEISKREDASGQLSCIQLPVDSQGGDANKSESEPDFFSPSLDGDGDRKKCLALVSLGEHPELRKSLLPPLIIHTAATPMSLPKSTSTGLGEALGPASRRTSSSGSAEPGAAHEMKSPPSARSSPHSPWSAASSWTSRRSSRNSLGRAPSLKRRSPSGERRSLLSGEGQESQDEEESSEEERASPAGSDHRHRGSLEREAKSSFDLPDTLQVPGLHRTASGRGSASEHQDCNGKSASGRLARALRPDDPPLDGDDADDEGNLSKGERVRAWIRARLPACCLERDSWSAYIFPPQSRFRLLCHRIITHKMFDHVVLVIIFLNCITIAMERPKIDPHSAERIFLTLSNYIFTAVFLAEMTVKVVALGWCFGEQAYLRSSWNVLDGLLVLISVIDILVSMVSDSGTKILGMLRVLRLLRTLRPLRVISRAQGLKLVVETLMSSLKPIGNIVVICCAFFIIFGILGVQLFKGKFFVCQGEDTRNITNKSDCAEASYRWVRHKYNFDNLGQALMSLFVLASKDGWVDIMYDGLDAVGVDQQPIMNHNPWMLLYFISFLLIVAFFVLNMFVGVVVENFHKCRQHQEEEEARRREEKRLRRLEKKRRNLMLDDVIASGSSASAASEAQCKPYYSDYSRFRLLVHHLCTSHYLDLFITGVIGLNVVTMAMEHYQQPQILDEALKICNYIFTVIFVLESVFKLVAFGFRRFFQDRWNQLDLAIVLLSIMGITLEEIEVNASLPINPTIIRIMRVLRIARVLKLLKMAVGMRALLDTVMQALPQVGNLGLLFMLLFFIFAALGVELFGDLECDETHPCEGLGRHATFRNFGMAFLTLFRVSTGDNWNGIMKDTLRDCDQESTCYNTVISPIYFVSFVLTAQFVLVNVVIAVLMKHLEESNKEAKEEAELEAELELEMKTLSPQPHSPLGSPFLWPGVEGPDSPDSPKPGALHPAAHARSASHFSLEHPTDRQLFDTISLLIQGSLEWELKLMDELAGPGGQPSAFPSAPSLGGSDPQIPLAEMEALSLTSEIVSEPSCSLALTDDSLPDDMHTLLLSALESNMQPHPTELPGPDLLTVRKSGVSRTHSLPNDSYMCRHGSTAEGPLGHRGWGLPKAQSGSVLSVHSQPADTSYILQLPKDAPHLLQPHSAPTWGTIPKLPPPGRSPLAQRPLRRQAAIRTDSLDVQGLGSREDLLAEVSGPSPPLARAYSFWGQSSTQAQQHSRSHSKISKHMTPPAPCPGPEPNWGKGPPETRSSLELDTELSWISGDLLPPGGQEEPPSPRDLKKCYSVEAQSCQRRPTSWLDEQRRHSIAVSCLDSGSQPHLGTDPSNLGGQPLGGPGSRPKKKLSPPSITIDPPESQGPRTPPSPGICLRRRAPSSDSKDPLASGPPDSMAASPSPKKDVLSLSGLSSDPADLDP

Row | SMILES | effect of low concentrations on CaV3.1 channel current ([1]; QPatch, 49 nM–3.1 µM) | shift in the I–V relationship of CaV3.1 ([1]; QPatch, 2.5 µM and 15 µM) | IC50 [1] | viability at 50 µM (T-47D cells; [3]) | IC50 (T-47D cells; [4]) | IC50 [2] | extent of block of CaV3.2 whole-cell inward Ca2+ current [2] | IC50 (T-47D cells; 72 h treatment) | IC50 (T-47D cells; Homo sapiens, T47D, 24 h, 24 h treatment) | IC50 (T-47D cells; Homo sapiens, T47D, 48 h, 48 h treatment)
1 | c1ccc2c(Cc3c[nH]c4ccccc34)c[nH]c2c1 [DIM, 3,3′-diindolylmethane, reference compound] | weakly enhanced | not accompanied by shifts | 8.32 ± 1.53 µM | 18.9 ± 1.15% | 36 µM | 21.1 ± 1.19 µM |  |  |  | 
2 | O=C(c1c[nH]c2ccccc12)c1c[nH]c2ccccc12 [DIM-one, 3,3′-diindolylmethanone] |  |  | 1.53 µM | 50.6 ± 2.08% | 44 µM | ~50 µM | poor inhibition |  |  | 
3 | O=C(c1c[nH]c2cc(Br)ccc12)c1c[nH]c2cc(Br)ccc12 [IV] |  |  |  | 6.14 ± 0.55% | 4 µM |  |  | 4.1 µM | 13.8 µM | 3.9 µM
4 | O=C(c1cn(Cc2ccccc2)c2ccccc12)c1cn(Cc2ccccc2)c2ccccc12 [IX, bis(1-benzyl-1H-indol-3-yl)methanone] |  |  | 47.4 ± 11.7 µM |  |  | 2.97 ± 0.29 µM | partially blocked; also recorded: only partial inhibition |  |  | 
